Measured values: publication PMC7802073, “Small Molecule Inhibitors of the Bacterioferritin (BfrB)–Ferredoxin (Bfd) Complex Kill Biofilm-Embedded Pseudomonas aeruginosa Cells” (ACS Infectious Diseases, 2020)
Where “and” joins values, the source holds several entries; their conditions need not be identical. Identical values can stand only once.

Columns and labels:
Assay type in all cases: cell-based, Pseudomonas aeruginosa
[1] = system: EYFP-expressing P. aeruginosa PAO1 pellicles; experiment: Viable cells (CFU/mL) dispersed from pellicle biofilms; conditions: 24 h; for viable cell count relative to the untreated pellicle (% cell survival): KM-5-25 40 μM (0.6× IC50) or KM-5-66 20 μM (0.5× IC50)
Description: Pellicle biofilms were grown as described above. Planktonic and loosely attached cells were washed (3 times) by immersing the coverslip-adhered pellicles (biofilm facing up) into a well of a 12-well plate containing 3 mL PBS, and incubating (5 min) with gentle rocking. To remove the pellicle from the coverslip, break the extracellular matrix and release cells from the biofilm, the coverslip-adhered pellicle was placed in a 50 mL conical tube containing a 2 mL suspension of zirconia beads (0.1 mm diameter, BioSpec Products), 10 mL PBS, 0.2 μg/mL alginate lyase and 0.2 μg/mL DNase. The resultant mixture was incubated at room temperature for 3 min, followed by vigorous vortexing for 4 min. After sedimentation of the zirconia beads, a 100 μL aliquot was used for serial dilution and plating on PIA plates for subsequent enumeration of viable cells (CFU/mL).

[2] = system: Pellicles of P. aeruginosa PAO1 expressing EYFP; experiment: Pellicle biofilm assay, CLSM imaging and COMSTAT viable biomass; conditions: 24 h, approximately 1.2× IC50 (KM-5-25 80 μM, KM-5-66 50 μM)
Description: Pellicle biofilms of EYFP-expressing P. aeruginosa PAO1 or clinical isolates were grown in PI media supplemented with 20 μM Fe. Starter cultures were diluted to OD600 = 0.001 in 4 mL media, placed in 35 × 10 mm Petri dishes and incubated statically at 30 °C for 48 h. The pellicles were transferred onto circular (1.5 cm diameter) glass coverslips by gently allowing the surface of a coverslip to contact a pellicle. The pellicle-adhered coverslip was washed in PBS and then deposited on top of 1.5 mL AB challenge media contained in a well of a 12-well microplate, with the pellicle exposed to the media. […] The coverslip-adhered pellicles were exposed to challenge media at 30 °C for 24 h, changing the challenge media every 12 h by transferring the pellicle-adhered coverslip to a new plate containing prewarmed challenge media.
Excess fluorescent dye was washed with PBS, the coverslip was mounted on a glass slide using 5 μL SlowFade (Invitrogen Life Technologies) and the edges sealed with fingernail polish. CLSM image stacks (z-step size of 0.3 μm) were acquired with the aid of a Leica TCS SP8 microscope, as described above. Quantitative analysis was performed by determination of pellicle biomass using COMSTAT[55] and the Otsu method of automatic thresholding.[86]

[3] = system: P. aeruginosa PAO1 cells dispersed from pellicles; experiment: Total intracellular iron in biofilm-embedded cells; conditions: 2-day old pellicles, 24 h, KM-5-25 40 μM or KM-5-66 20 μM
Description: Pellicle biofilms were grown for 48 h as described above. The pellicles were transferred onto square (2 × 2 cm) glass coverslips by gently contacting the pellicle with the coverslip. […] After the zirconia beads had sedimented, a 100 μL aliquot was sampled from the cell suspension for plating and enumeration of viable cells and a 14 mL sample was used to harvest the cells by centrifugation (20 min, 400 rpm). The cell pellet was resuspended in 1 mL PBS, transferred to a 1.5 mL microcentrifuge tube, centrifuged for 10 min at 12 500 rpm at 4 °C and the cell pellet frozen at −80 °C. The frozen cells were subjected to three freeze–thaw cycles and then lysed by addition of 200 μL of lysis buffer (50 mM Tris-HCl buffer (pH 8.0) containing 10% (v/v) glycerol, 20 mg/mL lysozyme, 0.2 mg/mL DNase, 0.1 M NaCl, 1 mM MgSO4 and 1% (v/v) Triton-X100) and incubated at ambient temperature (30 min) and at 37 °C (30 min). […] Levels of total intracellular iron were determined as reported previously:[23],[87] […] The iron concentration was measured from the absorbance of the Fe^2+–Ferene S complex (ε593 = 34.5 mM^–1 cm^–1),[88] normalized by the viable cell counts and reported as Fe atoms per cell.

[4] = system: iron stored in BfrB in pellicle-embedded P. aeruginosa PAO1 cells; experiment: Iron stored in BfrB, native PAGE stained with Ferene S, densitometry; conditions: 2-day old pellicles, 24 h, KM-5-25 40 μM or KM-5-66 20 μM
[5] = 2-day old pellicles, 1.2× IC50 (KM-5-25 80 μM, KM-5-66 50 μM)
[6] = compound at 1.2× IC50 combined with colistin 25× MIC (20 μM)
[7] = compound at 1.2× IC50 combined with colistin 25× MIC
[8] = compound at 1.2× IC50 combined with colistin 50× MIC (40 μM)
[9] = compound at 1.2× IC50 combined with colistin 50× MIC
[10] = compound at 1.2× IC50 combined with tobramycin 25× MIC (27 μM)
[11] = compound at 1.2× IC50 combined with tobramycin 25× MIC
[12] = compound at 1.2× IC50 combined with tobramycin 50× MIC

Row | SMILES | % survival relative to cells in the pretreated biofilm ([1]; 2-day old pellicles, 0.6× IC50) | % survival relative to cells in the pretreated biofilm [1, 5] | viable cell count relative to the untreated pellicle (% cell survival) ([1]; 2-day old pellicles) | % survival, combination treatment [1, 6] | reduction of viable cells relative to treatment with colistin alone [1, 7] | % survival, combination treatment [1, 8] | reduction of viable cells relative to treatment with colistin alone [1, 9] | % survival, combination treatment [1, 10] | reduction of viable cells relative to treatment with tobramycin alone [1, 11] | % survival, combination treatment [1, 12] | reduction of viable cells relative to treatment with tobramycin alone [1, 12] | cells in the pellicle killed (COMSTAT) [2] | total intracellular iron normalized to viable cell counts, relative to untreated biofilms [3] | iron in BfrB relative to cells in untreated pellicles (Ferene S band peak area) [4] | % survival relative to cells in the pellicles prior to treatment ([1]; 2-day old pellicles, 0.3× IC50)
1 | O=C1NC(=O)c2c(NCc3cc(Cl)ccc3O)cccc21 [KM-5-25, 4-((5-Chloro-2-hydroxybenzyl)amino)isoindoline-1,3-dione] | ~38% | ~25% | 42% and 42.5% | ~1% | ~1 log | ~0.5% | ~0.7 log | ~0.5% | approximately 2.5 log | ~0.003% | ~4.7 log | ~85% | ~2.5 fold | ~3 fold | 
2 | O=C1NC(=O)c2c(NCCCc3cc(O)cc(Cl)c3)cccc21 [KM-5-66, 4-((3-(3-Chloro-5-hydroxyphenyl)propyl)amino)isoindoline-1,3-dione] | ~21% | ~15% | 37% and 37.2% | ~0.3% | approximately 1.7 log | ~0.02% | ~1.9 log | 5% | approximately 1.5 log | 1% | ~2 log | ~85% | ~2.5 fold | ~3 fold | approximately 57%
